Here are results for one compound from publication PMC13441234 (2025).

The test system of test [1] is Phenylalanine aptamer (on 8 nm SiO2 blocking layer) (DNA, aptamer) CGACCGCGTTTCCCAAGAAAGCAAGTATTGGTTGGTCG
The test can be described thus: square wave voltammetry, electrochemical aptamer sensor. The following applies: 1x PBS, room temperature, 300 Hz, 50 mV amplitude, apparent, immobilised aptamer, n = 3 electrodes.

Test [2] deals with Phenylalanine aptamer (on gold with alkylthiolate/MCH blocking layer) (DNA, aptamer) CGACCGCGTTTCCCAAGAAAGCAAGTATTGGTTGGTCG
Described as above. The following applies: 1x PBS (cation concentrations not given); apparent; 300 Hz; immobilised aptamer; whether own (Figure A2) or literature value not explicit.

In the case of `N[C@@H](Cc1ccccc1)C(=O)O`, the binding constant in test [1] was 12 µM; in test [2] it was 400 µM.
